According to ChEMBL document CHEMBL5465560, “Selectivity Literature for EUbOPEN Chemogenomic Library” (2024):

Key:
[1] = molecular target: T1, Mitogen-activated protein kinase kinase kinase kinase 2 (Homo sapiens) (UniProt Q12851); experiment: Selectivity interaction (ProQinase) EUB0000171b MAP4K2
T1 sequence (whole entry): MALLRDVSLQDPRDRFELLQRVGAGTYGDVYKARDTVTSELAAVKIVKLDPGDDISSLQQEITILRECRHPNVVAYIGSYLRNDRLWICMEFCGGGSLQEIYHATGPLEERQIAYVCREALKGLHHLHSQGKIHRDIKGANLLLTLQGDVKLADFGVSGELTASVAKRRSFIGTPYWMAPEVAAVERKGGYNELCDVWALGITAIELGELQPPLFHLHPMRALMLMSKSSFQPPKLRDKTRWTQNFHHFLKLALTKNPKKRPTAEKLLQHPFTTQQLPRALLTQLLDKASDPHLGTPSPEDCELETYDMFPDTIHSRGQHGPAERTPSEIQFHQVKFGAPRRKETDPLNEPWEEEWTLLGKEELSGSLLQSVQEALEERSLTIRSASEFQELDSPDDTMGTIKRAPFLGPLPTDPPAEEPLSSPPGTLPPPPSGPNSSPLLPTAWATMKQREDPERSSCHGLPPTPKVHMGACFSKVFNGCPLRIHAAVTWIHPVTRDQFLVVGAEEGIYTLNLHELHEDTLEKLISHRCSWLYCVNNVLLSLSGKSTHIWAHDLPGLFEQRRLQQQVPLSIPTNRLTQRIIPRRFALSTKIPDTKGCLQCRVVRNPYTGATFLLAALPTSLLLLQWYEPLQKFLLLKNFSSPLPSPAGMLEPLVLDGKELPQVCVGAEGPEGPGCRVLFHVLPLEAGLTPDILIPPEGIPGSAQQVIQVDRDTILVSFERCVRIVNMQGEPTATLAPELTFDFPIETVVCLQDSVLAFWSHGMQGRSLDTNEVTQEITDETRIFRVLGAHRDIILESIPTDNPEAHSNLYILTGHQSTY

[2] = molecular target: Tudor domain-containing protein 3 (Homo sapiens) (UniProt Q9H7E2); experiment: Selectivity interaction (PWWP, WD40, and Tudor domain panel (DSLS measurements, literature)) EUB0000270b TDRD3
Tudor domain-containing protein 3 (Homo sapiens), sequence (Q9H7E2 whole entry, the tested form may be a part): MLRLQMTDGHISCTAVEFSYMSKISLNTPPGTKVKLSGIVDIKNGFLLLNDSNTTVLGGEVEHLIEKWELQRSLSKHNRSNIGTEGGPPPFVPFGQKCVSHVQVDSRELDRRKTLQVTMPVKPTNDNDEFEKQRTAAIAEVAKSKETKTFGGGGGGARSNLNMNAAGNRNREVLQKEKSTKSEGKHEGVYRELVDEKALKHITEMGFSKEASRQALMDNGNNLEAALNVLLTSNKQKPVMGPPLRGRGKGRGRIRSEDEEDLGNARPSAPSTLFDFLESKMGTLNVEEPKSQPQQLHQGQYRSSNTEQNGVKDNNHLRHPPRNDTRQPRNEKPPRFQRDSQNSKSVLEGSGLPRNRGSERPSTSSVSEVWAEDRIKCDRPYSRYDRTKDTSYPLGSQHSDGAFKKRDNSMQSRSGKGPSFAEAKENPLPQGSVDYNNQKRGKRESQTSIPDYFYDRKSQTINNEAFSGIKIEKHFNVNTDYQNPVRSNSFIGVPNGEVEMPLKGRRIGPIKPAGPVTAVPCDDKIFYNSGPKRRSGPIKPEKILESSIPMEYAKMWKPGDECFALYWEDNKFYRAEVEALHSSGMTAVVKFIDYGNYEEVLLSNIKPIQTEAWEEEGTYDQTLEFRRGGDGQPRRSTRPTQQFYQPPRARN

[3] = molecular target: Serine/threonine-protein kinase PLK3 (Homo sapiens, UniProt Q9H4B4)
Serine/threonine-protein kinase PLK3, sequence (Q9H4B4 whole entry): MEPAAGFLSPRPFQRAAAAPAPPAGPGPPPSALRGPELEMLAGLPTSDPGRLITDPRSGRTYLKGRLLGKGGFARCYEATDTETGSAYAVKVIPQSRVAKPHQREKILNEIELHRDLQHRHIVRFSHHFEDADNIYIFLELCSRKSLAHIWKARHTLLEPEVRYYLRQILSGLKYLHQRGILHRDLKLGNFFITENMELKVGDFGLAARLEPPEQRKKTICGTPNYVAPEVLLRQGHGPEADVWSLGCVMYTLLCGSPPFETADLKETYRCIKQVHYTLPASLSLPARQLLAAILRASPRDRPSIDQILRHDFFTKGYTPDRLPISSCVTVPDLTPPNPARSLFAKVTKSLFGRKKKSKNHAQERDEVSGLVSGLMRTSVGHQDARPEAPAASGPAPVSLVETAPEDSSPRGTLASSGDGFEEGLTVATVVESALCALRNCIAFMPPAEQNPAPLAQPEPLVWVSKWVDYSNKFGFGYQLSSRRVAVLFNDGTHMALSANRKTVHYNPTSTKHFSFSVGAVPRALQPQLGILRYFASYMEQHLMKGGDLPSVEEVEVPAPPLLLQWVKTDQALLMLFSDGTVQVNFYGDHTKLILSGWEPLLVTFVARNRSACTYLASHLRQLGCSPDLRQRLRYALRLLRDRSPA

[4] = molecular target: T2, Tyrosine-protein kinase ITK/TSK (Homo sapiens) (UniProt Q08881); experiment: Selectivity interaction (Kinase panel (Invitrogen)) EUB0000639a ITK; details: at 200 nM
T2 sequence (whole entry): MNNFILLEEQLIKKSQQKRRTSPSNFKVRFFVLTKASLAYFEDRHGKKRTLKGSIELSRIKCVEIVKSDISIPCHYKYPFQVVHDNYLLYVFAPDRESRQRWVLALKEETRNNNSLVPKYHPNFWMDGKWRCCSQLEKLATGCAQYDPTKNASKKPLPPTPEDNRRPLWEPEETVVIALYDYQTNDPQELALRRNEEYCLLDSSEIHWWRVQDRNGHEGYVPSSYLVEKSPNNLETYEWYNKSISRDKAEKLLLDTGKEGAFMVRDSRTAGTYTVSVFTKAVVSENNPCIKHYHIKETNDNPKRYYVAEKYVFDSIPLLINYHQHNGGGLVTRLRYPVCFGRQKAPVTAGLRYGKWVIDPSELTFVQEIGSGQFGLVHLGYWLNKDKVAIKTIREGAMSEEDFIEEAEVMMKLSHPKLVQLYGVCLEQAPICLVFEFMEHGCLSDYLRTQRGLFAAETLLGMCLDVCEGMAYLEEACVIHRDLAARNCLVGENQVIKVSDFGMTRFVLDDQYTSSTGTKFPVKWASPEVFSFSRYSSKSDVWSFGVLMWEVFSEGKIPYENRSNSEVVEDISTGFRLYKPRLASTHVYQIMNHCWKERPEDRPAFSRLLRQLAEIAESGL

[5] = molecular target: Serine/threonine-protein kinase MARK2 (Homo sapiens) (UniProt Q7KZI7); experiment: Selectivity interaction (ActivX KiNativ screen (kinase selectivity in THP-1 cell lysates)) EUB0000639a MARK2; type: subcellular; details: lysate, at 0.04 µM
Serine/threonine-protein kinase MARK2 (Homo sapiens), sequence (Q7KZI7 whole entry): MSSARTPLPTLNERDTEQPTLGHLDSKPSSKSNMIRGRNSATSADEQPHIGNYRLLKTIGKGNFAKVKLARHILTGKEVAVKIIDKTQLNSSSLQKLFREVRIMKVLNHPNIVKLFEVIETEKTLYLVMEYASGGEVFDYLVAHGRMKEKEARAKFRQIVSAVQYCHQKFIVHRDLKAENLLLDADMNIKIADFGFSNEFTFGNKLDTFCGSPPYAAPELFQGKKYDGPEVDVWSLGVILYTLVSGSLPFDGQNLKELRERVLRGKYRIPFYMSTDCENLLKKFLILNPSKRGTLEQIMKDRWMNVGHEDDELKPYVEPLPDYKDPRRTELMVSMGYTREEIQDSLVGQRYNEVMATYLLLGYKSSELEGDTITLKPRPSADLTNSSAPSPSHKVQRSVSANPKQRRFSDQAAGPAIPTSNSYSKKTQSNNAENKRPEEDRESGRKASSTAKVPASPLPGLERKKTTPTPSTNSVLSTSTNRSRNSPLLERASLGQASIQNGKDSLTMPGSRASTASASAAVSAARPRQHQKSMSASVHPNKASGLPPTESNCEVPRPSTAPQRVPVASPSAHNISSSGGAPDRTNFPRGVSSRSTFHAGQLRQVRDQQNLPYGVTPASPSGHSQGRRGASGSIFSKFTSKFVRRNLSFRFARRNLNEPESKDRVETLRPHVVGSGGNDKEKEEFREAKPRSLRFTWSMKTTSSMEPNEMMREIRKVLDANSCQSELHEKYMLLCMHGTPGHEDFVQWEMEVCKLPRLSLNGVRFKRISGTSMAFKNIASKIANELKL

[6] = molecular target: T3, Ephrin type-B receptor 6 (Homo sapiens) (UniProt O15197); experiment: Selectivity interaction (KinomeScan (DiscoverX)) EUB0001049a EPHB6; details: at 1 µM
T3 sequence (whole entry): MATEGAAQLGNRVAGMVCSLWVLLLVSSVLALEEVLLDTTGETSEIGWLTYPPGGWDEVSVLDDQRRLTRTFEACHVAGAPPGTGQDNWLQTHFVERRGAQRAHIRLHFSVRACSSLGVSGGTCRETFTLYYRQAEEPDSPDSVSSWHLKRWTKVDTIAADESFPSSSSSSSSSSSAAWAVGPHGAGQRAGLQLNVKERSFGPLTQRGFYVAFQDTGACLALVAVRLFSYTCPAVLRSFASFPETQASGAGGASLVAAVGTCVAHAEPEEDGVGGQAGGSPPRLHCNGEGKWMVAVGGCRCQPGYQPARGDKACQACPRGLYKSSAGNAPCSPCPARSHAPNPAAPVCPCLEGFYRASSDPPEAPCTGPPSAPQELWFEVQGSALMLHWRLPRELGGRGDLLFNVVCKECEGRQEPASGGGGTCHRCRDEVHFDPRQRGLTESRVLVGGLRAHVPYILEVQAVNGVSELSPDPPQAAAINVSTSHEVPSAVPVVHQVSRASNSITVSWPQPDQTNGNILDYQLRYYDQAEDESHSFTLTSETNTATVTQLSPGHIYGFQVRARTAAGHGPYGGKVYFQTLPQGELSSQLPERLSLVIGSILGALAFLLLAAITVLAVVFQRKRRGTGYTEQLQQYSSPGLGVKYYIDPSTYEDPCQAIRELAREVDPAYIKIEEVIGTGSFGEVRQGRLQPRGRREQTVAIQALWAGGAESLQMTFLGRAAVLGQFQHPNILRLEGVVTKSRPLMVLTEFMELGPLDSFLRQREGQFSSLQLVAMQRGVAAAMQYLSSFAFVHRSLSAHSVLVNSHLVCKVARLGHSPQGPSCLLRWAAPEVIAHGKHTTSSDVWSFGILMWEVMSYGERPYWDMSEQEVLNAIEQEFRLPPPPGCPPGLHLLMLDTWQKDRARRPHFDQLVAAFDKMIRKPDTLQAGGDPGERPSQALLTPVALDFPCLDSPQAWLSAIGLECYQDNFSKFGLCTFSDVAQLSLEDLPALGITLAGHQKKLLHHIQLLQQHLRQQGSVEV

[7] = molecular target: Serine/threonine-protein kinase OSR1 (Homo sapiens) (UniProt O95747); experiment: Selectivity interaction (KinomeScan (DiscoverX)) EUB0000595a OXSR1; details: at 10 µM
Serine/threonine-protein kinase OSR1 (Homo sapiens), sequence (O95747 2-527 limits assumed): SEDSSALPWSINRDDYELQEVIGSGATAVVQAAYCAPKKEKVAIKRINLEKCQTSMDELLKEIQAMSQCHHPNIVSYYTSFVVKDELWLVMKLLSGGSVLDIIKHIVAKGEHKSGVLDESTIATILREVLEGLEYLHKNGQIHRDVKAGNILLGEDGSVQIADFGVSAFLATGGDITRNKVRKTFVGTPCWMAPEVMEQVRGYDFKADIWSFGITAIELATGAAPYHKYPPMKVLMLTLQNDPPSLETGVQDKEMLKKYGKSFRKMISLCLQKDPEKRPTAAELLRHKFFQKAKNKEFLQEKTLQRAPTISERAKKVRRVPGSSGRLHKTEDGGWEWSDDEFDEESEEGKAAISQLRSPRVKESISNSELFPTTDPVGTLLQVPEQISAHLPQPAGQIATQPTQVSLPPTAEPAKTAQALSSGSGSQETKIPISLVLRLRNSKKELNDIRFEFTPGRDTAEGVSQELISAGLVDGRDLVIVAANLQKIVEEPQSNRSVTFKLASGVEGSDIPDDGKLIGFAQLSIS

Question: Which results are given for `C=CC(=O)Nc1cccc(C(=O)Nc2ccc(Nc3cc(-c4[nH]c(SC)nc4C)ccn3)cc2)c1`?
Answer: % of control ([1]; at 1 µM): 89%; % of control ([1]; at 5 µM): 50%

Question: `Cc1cc(CN)cc(C)c1-c1ncn(C)c1-c1cncn1C` was tested. Which dTagg [2] did it give?
Answer: The dTagg was 0.8 K.

Question: Which IC50 [3] does the source give for `CCc1cccc(CC)c1NC(=O)c1nn(C)c2c1CCc1cnc(Nc3ccc(C(=O)NC4CCN(C)CC4)cc3OC(F)(F)F)nc1-2` here?
Answer: The IC50 was greater than 10 µM.

Question: Which results are given for `CC[C@@H]1[C@H](F)C(=O)N[C@@H]1COc1nccc2cc(C(N)=O)c(OC)cc12` [ZIMLOVISERTIB]?
Answer: % of inhibition [4]: -1.94%; % of inhibition [5]: -13.3%

Question: For `COc1cc(Nc2nc(C)cc(-c3cnn4nc(OC)ccc34)n2)cc(C(F)(F)F)c1`, which % of control [6] is on record?
Answer: The % of control was 78%.

Question: Which % of control [7] does the source give for `COCC(=O)NC/C=C/c1ccc2ncnc(Nc3ccc(Oc4ccc(C)nc4)c(C)c3)c2c1` [CP-724714] here?
Answer: Its % of control is 100%.
